{
  "source": "patent US6656962B2",
  "about": "“Use of amino-isoxazolidone compounds for improvement of lexical priming” (Pharmacia Corporation, priority 1994, dated 2003)",
  "key": {"[1]": {"target": "T1, NMDA receptor complex ([3H]TCP binding) (Rattus norvegicus, UniProt P35439)", "T1 construct": "Triton X-100 washed synaptic plasma membranes (SPM) prepared from rat forebrain; from tissue; host or cells: rat forebrain synaptic plasma membranes (male Sprague-Dawley, 30-45 days old), Triton X-100 washed", "assay": "Assay B: TCP Modulation Assay (stimulation of [3H]TCP binding to synaptic plasma membranes)", "assay_type": "biochemical", "method": "[3H]TCP binding was performed using Triton X-100 washed synaptic plasma membranes (SPM) prepared from rat forebrain (30-45 day old, male SpragueDawley; Sasco, St. Charles, Mo.) as described previously [J. W. Thomas, W. F. Hood, J. B. Monahan, P. C. Contreras and T. L. O'Donohue, Brain Res., 442, 396-398 (1988)]. […] The samples were then filtered through glass fiber filters (Schleicher and Schuell #32) which were pretreated with 0.05% (v/v) polyethylenimine. The filters were washed and the radioactivity quantitated by liquid scintillation spectrometry. […] The EC50 values for the stimulation of [3H]TCP binding were determined using a four parameter logistic regression analysis."}, "[2]": {"test_system": "implicit memory (priming) in Alzheimer patients", "assay": "Assay C: Implicit Memory Paradigm (word identification test, priming) in Alzheimer patients", "assay_type": "in vivo, human", "conditions": "15 mg twice daily", "description": "In this test, subjects identify words presented in a visually degraded or masked format in which only parts of each letter are shown. Subjects view several lists of these degraded words over a period of three days, some of which are repeated from day-to-day and some that are new. Learning, or what is referred to as “priming”, is shown on this test when subjects identify a larger number of repeated or old words than new words. […] The diagnosis of probable Alzheimer's disease was made according to the criteria defined by the National Institute on Neurological Disorders and Stroke Work Group [G. McKhann et al, Neurology, 34, 939-944 (1984)]. This diagnosis was based on clinical evaluation that included neuropsychological assessment, laboratory blood screening, neurolgical examination, and either a CT or MRI scan. The criteria for entry into the study was Mini-mental State Examination score between 12 and 24 inclusive [M. Folstein et al, J. Psych. Res., 12, 189-198 (1975)], Global Deterioration Scale score between 3 and 5 inclusive [B. Reisberg et al, Am. J. Psych., 139, 1136-1139 (1982)], Modified […], ischemic score of 4 or less [G. W. Small et al, J. Clin. Psych., 46, 514-517 […]], and Hamilton Psychiatric Rating Scale for Depression score of 17 or less [M. Hamilton, Neurology and Neurosurgery, 23, 56-62 (1960)]. Patients with medical, neurological, or psychiatric illnesses other than Alzheimer's disease that could account for the abnormal mental status were excluded. […] The eligibility of patients was assessed during a 28-day period before the study began. […] All unused medication was returned and counted to check for compliance in taking the drug. […] The total increase in priming was calculated by first deriving the amount of priming that occurred on each trial (i.e., difference in the proportion of old and new words identified). […] Priming is not calculated on trial 1 because from the patient's perspective there are no old words on trial 1; the words begin to repeat on the second trial."}, "[3]": {"test_system": "recognition memory and attention in Alzheimer patients", "conditions": "Alzheimer's disease patients, Searle Protocol NC6-93-06-009; cited from earlier work"}, "[4]": {"conditions": "oral, tenth week of treatment, Alzheimer patients"}},
  "data": [
    {"molecule": "c1csc(C2(N3CCCCC3)CCCCC2)c1", "note": "[[3H]TCP]", "values": [
      {"measurement": "Kd", "setting": "[1]; basal conditions", "value": 0.044, "unit": "µM"}
    ]},
    {"molecule": "NC1CONC1=O", "note": "(single isomer, unassigned) [D-cycloserine, 4-amino-3-isoxazolidone]", "values": [
      {"measurement": "effect on glycine stimulation of [3H]TCP binding", "setting": "[1]; in the presence of glycine (0.1-0.6 μM)", "value": "reduces the maximal level of glycine stimulation"},
      {"measurement": "patients who improved their priming scores from trial 2 to trial 9", "setting": "[2]; [4]", "value": 68, "unit": "%"},
      {"measurement": "total increase in priming vs placebo (post-hoc Scheffe test)", "setting": "[2]; [4]", "value": "significant difference in performance"},
      {"measurement": "linear trend in priming across trials", "setting": "[2]; trials 2 to 9, Alzheimer patients", "value": "significant linear trend across trials"},
      {"measurement": "performance on recognition memory and attentional tests", "setting": "[3]", "value": "did not improve performance"}
    ]}
  ]
}
